Assay results: patent US12600732B2, “Bifunctional compounds for degrading BTK via ubiquitin proteosome pathway” (NURIX THERAPEUTICS, INC., priority 2019, dated 2026)
Where two headings read alike, the source gives them in different places. One block for each molecule: values may come before it.

Assays:
[1] = tested on: TMD8 cells; experiment: Cell viability assay (CellTiter-Glo), TMD8 cells; settings: for EC50: Homo sapiens, TMD8, 72 h; for EMAX (% viable cells): TMD8 cells, treatment time 72 h
[2] = tested on: TMD8 C481S cells; experiment: Cell viability assay (CellTiter-Glo), TMD8 C481S cells; settings: for EC50: Homo sapiens, TMD8, 72 h; for EMAX (% viable cells): TMD8 C481S cells, treatment time 72 h
[3] = target: BTK C481S (Homo sapiens, UniProt Q06187, C481S); experiment: BTK degradation (Total BTK HTRF) in TMD8 cells expressing BTK-C481S; type: cell-based; set-up: endogenous in cells; host or cells: TMD8 BTK-C481S (clone2C3), Cas9 RNP knock-in; settings: TMD8 BTK-C481S (clone2C3) cells, treatment time 4 h
Experimental: BTK levels were determined using Cisbio Total-BTK HTRF (Homologous Time-Resolved Fluorescence) kit (63ADK064PEG) according to the manufacturer's protocol. Briefly, cells were incubated in 1× supplied lysis buffer for 30 minutes. In an opaque white low volume 96-well plate (Cisbio, 66PL96005), cell lysate was combined with two different specific BTK antibodies, one conjugated with Eu^3+-Cryptate FRET donor and one conjugated with d2 FRET acceptor. Assay controls include wells containing cell lysate with only the Eu^3+-Cryptate FRET donor antibody and wells containing both HTRF antibodies and lysis buffer without cells or control lysate provided by Cisbio. HTRF ratio was calculated as (acceptor signal at 665 nm/donor signal at 620 nm)×10^4. Background HTRF levels were determined from the control well containing the donor, but no acceptor, antibody. Background HTRF levels were subtracted from all samples. Readouts were reported as HTRF levels relative to HTRF levels of DMSO-treated cells. Four-parameter non-linear regressions were performed in GraphPad Prism 7.02 to obtain DC50 values.
BTK Degradation (Total BTK HTRF) at Four Hours in TMD8 Cells Expressing BTK-C481S
This example evaluates the potency of CTM in degrading […]. The BTK binding moieties utilized in CTMs bind to the BTK active site. This example evaluates whether the active site mutation C481S affects CTM-induced degradation of BTK.

[4] = target: T1, Aiolos (Homo sapiens, UniProt Q96SW2+Q9UKT9); experiment: Aiolos degradation in Mantle Cell Lymphoma lines (flow cytometry); type: cell-based; settings: treatment time 24 h
T1 construct: endogenous in cells; host or cells: Mino, Rec-1
Description: (§1) Ikaros and Aiolos Degradation in Mantle Cell Lymphoma Lines (Ikaros and Aiolos Flow Cytometry)
(§2) This example evaluates the IMiD activity of CTMs in cellular models of Mantle Cell Lymphoma (MCL). […] These assays are to determine potency of CTMs for degrading IMiD neo-substrates in cellular models of MCL and to generate data to inform efficacy studies in MCL xenografts.

[5] = target: T2, Ikaros (Homo sapiens, UniProt Q13422+Q96SW2); experiment: Ikaros degradation in Mantle Cell Lymphoma lines (flow cytometry); type: cell-based; settings: treatment time 24 h
T2 construct: endogenous in cells; host or cells: Mino, Rec-1
Description: as §1, §2

[6] = tested on: primary human T cells; experiment: T cell activation assay, IL-2 secretion (ELISA); type: cell-based; settings: for IL-2 secretion compared to baseline (anti-CD3/anti-CD28 stimulation alone): primary human T cells
Experimental: (§3) This example evaluates whether CTMs with IMiD activity affect T cell activation. […] These assays were performed to assess whether BTK CTMs with and without IMiD activity affected activation of primary human T cells after stimulation of the T cell receptor with anti-CD3/ati-CD28 stimulation. T cell activation was measured by IL-2 secretion (ELISA assay) and upregulation of activation markers CD25 and CD69 on the surface of T cells (flow cytometry). Data are presented as the fold-change of response relative to baseline (stimulation with anti-CD3/anti-CD28 stimulation in the absence of compound).

[7] = tested on: primary human T cells; experiment: T cell activation assay, CD25 and CD69 staining (flow cytometry); type: cell-based; settings: for CD25 Staining Anti-CD3/Anti-CD28 Stimulation / CD69 Staining Anti-CD3/Anti-CD28 Stimulation: fold-change of response relative to baseline; for expression of CD25 and CD69 compared to baseline (anti-CD3/anti-CD28 stimulation alone): primary human T cells
Experimental: as §3

[8] = target: T3, BTK (Mus musculus, UniProt P35991); experiment: In vivo degradation of BTK in mouse PD experiments with oral dosing; settings: oral dose 30 mg/kg, 24 h, blood, flow cytometry
T3 construct: from tissue; host or cells: mouse blood B cells / splenocytes (CD-1 or BALB/c)
Method in brief: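 CD-1 or BALB/c mice dosed by oral gavage, screens at 90 mg/kg for 6 h, later at lower doses/longer times. Blood or splenocyte BTK measured by intracellular flow cytometry (or HTRF); % degradation from B-cell minus T-cell BTK geometric MFI, relative to vehicle.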

[9] = tested on: B cell receptor (BCR) signaling; experiment: B cell activation assay (flow cytometry), mouse B cells; type: cell-based; settings: treatment 4 h, IgM stimulation 18 h
Experimental: Compound was present throughout the stimulation. Cells were stained with Live/Dead dye (Fisher L34976) and then fluorophore-conjugated antibodies against CD20 (Biolegend 302330), CD3 (BD Pharmingen 557705), CD86 (Biolegend 305416) and CD69 (Biolegend 310906). Stained cells were fixed in PFA and run on an Attune N×T Acoustic Focusing Flow Cytometer (Thermo-Fisher A29004), and data was analyzed using FlowJo (v10.5.3) and GraphPad Prism (v7.00) software. Single live lymphocytes were gated for B cells (CD20+CD3−) and T cells (CD3+CD20−), and the geometric mean fluorescence intensity (MFI) of CD86 and CD69 was calculated for each population. The MFI of the unstimulated sample was used to quantify baseline activation.
This example evaluates whether CTM treatment affects B cell receptor (BCR) signaling. BTK is activated downstream of the B cell receptor and leads to upregulation of activation markers CD86 and CD69 on the surface of B cells.

[10] = 1.4 nM, fold-change of response relative to baseline
[11] = 37 nM, fold-change of response relative to baseline
[12] = 333 nM, fold-change of response relative to baseline (stimulation without compound)

- DC50 [3]: 4.3 nM
SMILES: CN1CCN([C@@H]2CCCN(c3cnc(C(N)=O)c(Nc4ccc(C5CCN(C6CN(Cc7ccc8c(c7)C(=O)N(C7CCC(=O)NC7=O)C8=O)C6)CC5)cc4)n3)C2)C1=O (some centres unmarked) [Compound 101]
- EC50 [1]: 93.4 nM
- EMAX (% viable cells) [1]: 27%
- EC50 [2]: 431 nM
- EMAX (% viable cells) [2]: 27%

- DC50 ([4]; Mino cells): 10 nM
- DC50 ([4]; Rec-1 cells): 31 nM
- DC50 ([5]; Mino cells): 29 nM
- DC50 ([5]; Rec-1 cells): 63 nM
SMILES: CN1CCN([C@@H]2CCCN(c3cnc(C(N)=O)c(Nc4ccc(C5CCN(C(=O)CCOCCNc6cccc7c6C(=O)N(C6CCC(=O)NC6=O)C7=O)CC5)cc4)n3)C2)C1=O (some centres unmarked) [Compound 25]
- IL-2 Secretion Anti-CD3/Anti-CD28 Stimulation [6, 10]: 2.42
- IL-2 Secretion Anti-CD3/Anti-CD28 Stimulation [6, 11]: 3.35
- IL-2 Secretion Anti-CD3/Anti-CD28 Stimulation [6, 12]: 3.86
- IL-2 secretion compared to baseline (anti-CD3/anti-CD28 stimulation alone) [6]: increased IL-2 secretion but not to the level observed with IMiDs
- CD25 Staining Anti-CD3/Anti-CD28 Stimulation ([7]; 1.4 nM): 1.25
- CD69 Staining Anti-CD3/Anti-CD28 Stimulation ([7]; 1.4 nM): 1.18
- CD25 Staining Anti-CD3/Anti-CD28 Stimulation ([7]; 37 nM): 1.30
- CD69 Staining Anti-CD3/Anti-CD28 Stimulation ([7]; 37 nM): 1.33
- CD25 Staining Anti-CD3/Anti-CD28 Stimulation ([7]; 333 nM): 1.39
- CD69 Staining Anti-CD3/Anti-CD28 Stimulation ([7]; 333 nM): 1.39
- expression of CD25 and CD69 compared to baseline (anti-CD3/anti-CD28 stimulation alone) [7]: unchanged or decreased levels

- DC50 [3]: 0.4 nM
SMILES: CN1CCN([C@@H]2CCCN(c3cnc(C(N)=O)c(Nc4ccc(C5CCN(CC6CCN(c7ccc8c(c7)n(C)c(=O)n8C7CCC(=O)NC7=O)CC6)CC5)cc4)n3)C2)C1=O (some centres unmarked) [Compound 156]

- % BTK Remaining [8]: 33%
- DC50 [3]: 7.7 nM
SMILES: NC(=O)c1ncc(N2CCCC3(COC3)C2)nc1Nc1ccc(C2CCN(C[C@H]3CCN(c4ccc5c(c4)C(=O)N(C4CCC(=O)NC4=O)C5=O)C3)CC2)cc1 (some centres unmarked) [Compound 126]

- EC50 ([9]; read-out: CD69 EC50): 50 nM
- EC50 ([9]; read-out: CD86 EC50): 70 nM
SMILES: O=C(c1ccc(Oc2ccccc2)cc1Cl)c1c[nH]c2ncnc(N[C@@H]3CC[C@@H](CO)OC3)c12 [ARQ531]
- EC50 [1]: 100 nM
- EMAX (% viable cells) [1]: 16%
- EC50 [2]: 100 nM
- EMAX (% viable cells) [2]: 17%

- % BTK Remaining [8]: 16%
- DC50 [3]: 5.3 nM
SMILES: CN1CCN([C@H]2CCCN(c3cnc(C(N)=O)c(Nc4ccc(C5CCN(CC6CCN(c7ccc(NC8CCC(=O)NC8=O)cn7)CC6)CC5)cc4)n3)C2)C1=O (some centres unmarked) [Compound 129]
- EC50 [1]: 3.17 nM
- EMAX (% viable cells) [1]: 16%
- EC50 [2]: 4.36 nM
- EMAX (% viable cells) [2]: 14%

- DC50 ([4]; Mino cells): 10 nM
- DC50 ([4]; Rec-1 cells): 34 nM
- DC50 ([5]; Mino cells): 1100 nM
- DC50 ([5]; Rec-1 cells): 1000 nM
SMILES: CN1CCN([C@@H]2CCCN(c3cnc(C(N)=O)c(Nc4ccc5c(c4)CCN(C4CN(c6ccc7c(c6)C(=O)N(C6CCC(=O)NC6=O)C7=O)C4)C5)n3)C2)C1=O (some centres unmarked) [Compound 30]
- IL-2 Secretion Anti-CD3/Anti-CD28 Stimulation [6, 10]: 1.59
- IL-2 Secretion Anti-CD3/Anti-CD28 Stimulation [6, 11]: 3.82
- IL-2 Secretion Anti-CD3/Anti-CD28 Stimulation [6, 12]: 3.95
- IL-2 secretion compared to baseline (anti-CD3/anti-CD28 stimulation alone) [6]: increased IL-2 secretion but not to the level observed with IMiDs
- CD25 Staining Anti-CD3/Anti-CD28 Stimulation ([7]; 1.4 nM): 1.01
- CD69 Staining Anti-CD3/Anti-CD28 Stimulation ([7]; 1.4 nM): 1.01
- CD25 Staining Anti-CD3/Anti-CD28 Stimulation ([7]; 37 nM): 1.14
- CD69 Staining Anti-CD3/Anti-CD28 Stimulation ([7]; 37 nM): 1.10
- CD25 Staining Anti-CD3/Anti-CD28 Stimulation ([7]; 333 nM): 1.17
- CD69 Staining Anti-CD3/Anti-CD28 Stimulation ([7]; 333 nM): 1.16
- expression of CD25 and CD69 compared to baseline (anti-CD3/anti-CD28 stimulation alone) [7]: unchanged or decreased levels
